A word on the IC50: it is the concentration that gives 50% inhibition.

The test has as its target T1, myeloperoxidase (MPO) (Homo sapiens, UniProt P05164).
T1 sequence (P05164 49-745): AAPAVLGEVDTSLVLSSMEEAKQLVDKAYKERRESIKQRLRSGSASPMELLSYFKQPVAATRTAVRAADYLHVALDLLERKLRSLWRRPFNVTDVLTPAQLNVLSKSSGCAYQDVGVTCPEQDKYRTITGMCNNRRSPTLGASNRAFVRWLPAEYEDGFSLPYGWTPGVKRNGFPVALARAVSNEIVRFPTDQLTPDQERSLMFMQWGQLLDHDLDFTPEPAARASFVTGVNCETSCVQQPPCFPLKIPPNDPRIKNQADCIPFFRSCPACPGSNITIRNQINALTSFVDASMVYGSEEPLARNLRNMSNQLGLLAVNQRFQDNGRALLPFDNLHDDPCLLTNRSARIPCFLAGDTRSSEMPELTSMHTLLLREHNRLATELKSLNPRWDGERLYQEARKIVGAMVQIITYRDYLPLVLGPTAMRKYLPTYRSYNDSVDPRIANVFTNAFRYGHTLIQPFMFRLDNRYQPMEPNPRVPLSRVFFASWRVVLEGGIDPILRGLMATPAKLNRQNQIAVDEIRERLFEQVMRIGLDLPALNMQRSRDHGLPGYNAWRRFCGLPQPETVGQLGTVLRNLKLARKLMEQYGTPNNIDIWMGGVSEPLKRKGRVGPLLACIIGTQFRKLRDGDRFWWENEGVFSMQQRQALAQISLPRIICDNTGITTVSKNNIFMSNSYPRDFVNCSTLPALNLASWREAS
Put plainly: MPO peroxidation assay (Amplex Red assay). The format is biochemical. The settings on record: MPO peroxidation, potency range class; read-out: Amplex Red IC50. The method, boiled down:
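Peroxidase turnover of Amplex Red to fluorescent resorufin (Ex 535/Em 590 nm) was followed for 15 min in 100 mM KPi, pH 7.4, after 10 min room-temperature preincubation of compound with 200 pM enzyme plus 40 nM H2O2. The substrate mix contained 200 μM Amplex Red and 10 mM H2O2. IC50s came from linear-phase rates (180–540 s) fitted with a Hill equation.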
For the compound `CCN(C)C(=O)c1ccc(-c2cccc(COc3cc(N)nc4[nH]nnc34)c2)cc1F` [Example 116, 3′-((5-Amino-3H-[1,2,3]triazolo[4,5-b]pyridin-7-yloxy)methyl)-N-ethyl-3-fluoro-N-methylbiphenyl-4-carboxamide], the half-inhibitory concentration (IC50) is 101 to 999 nM. Turning to `COc1c(F)cc(F)cc1-c1ccc(COc2cc(N)nc3[nH]nnc23)cc1` [Example 117, 7-((3′,5′-Difluoro-2′-methoxybiphenyl-4-yl)methoxy)-3H-[1,2,3]triazolo[4,5-b]pyridin-5-amine], the IC50 is 101 to 999 nM.

Regarding `COc1cccc(Cl)c1-c1ccc(COc2cc(N)nc3[nH]nnc23)cc1` [Example 118, 7-((2′-Chloro-6′-methoxybiphenyl-4-yl)methoxy)-3H-[1,2,3]triazolo[4,5-b]pyridin-5-amine], the IC50 lay within 1 to 100 nM. On to `Nc1cc(OCc2ccc(-c3ccc(OC(F)(F)F)cc3)cc2)c2nn[nH]c2n1` [Example 119, 7-((4′-(Trifluoromethoxy)biphenyl-4-yl)methoxy)-3H-[1,2,3]triazolo[4,5-b]pyridin-5-amine], for which the IC50 was 101 to 999 nM. Next, `Nc1cc(OCc2ccc(-c3cccc(C(F)(F)F)c3)cc2)c2nn[nH]c2n1` [Example 120, 7-((3′-(Trifluoromethyl)biphenyl-4-yl)methoxy)-3H-[1,2,3]triazolo[4,5-b]pyridin-5-amine]: 101 to 999 nM; `Nc1cc(OCc2cccc(-c3cncc(F)c3)c2)c2nn[nH]c2n1` [Example 121, 7-(3-(5-Fluoropyridin-3-yl)benzyloxy)-3H-[1,2,3]triazolo[4,5-b]pyridin-5-amine]: 1 to 100 nM. As for `COc1ccc(-c2ccc(COc3cc(N)nc4[nH]nnc34)cc2)cc1` [Example 122, 7-((4′-Methoxybiphenyl-4-yl)methoxy)-3H-[1,2,3]triazolo[4,5-b]pyridin-5-amine], the 50% inhibitory concentration (IC50) fell in the range of 1 to 100 nM. For `COc1ccccc1-c1ccc(COc2cc(N)nc3[nH]nnc23)cc1` [Example 123, 7-((2′-Methoxybiphenyl-4-yl)methoxy)-3H-[1,2,3]triazolo[4,5-b]pyridin-5-amine], the 50% inhibitory concentration (IC50) lay in the range of 1 to 100 nM. For the compound `COc1cccc(Cl)c1-c1cccc(COc2cc(N)nc3[nH]nnc23)c1` [Example 124, 7-((2′-Chloro-6′-methoxybiphenyl-3-yl)methoxy)-3H-[1,2,3]triazolo[4,5-b]pyridin-5-amine], the IC50 is 101 to 999 nM.

For `COc1ccccc1COc1cc(N)nc2[nH]nnc12` [Example 125], the IC50 lay in the range of 1 to 100 nM.

As for `Nc1cc(OC(c2ccccc2)C(F)(F)F)c2nn[nH]c2n1` (stereo not drawn) [Example 126, 7-(2,2,2-Trifluoro-1-phenylethoxy)-3H-[1,2,3]triazolo[4,5-b]pyridin-5-amine], the IC50 is 101 to 999 nM. Next, `COc1cccc(COc2cc(N)nc3[nH]nnc23)c1` [Example 127, 7-((3-Methoxybenzyl)oxy)-3H-[1,2,3]triazolo[4,5-b]pyridin-5-amine]: 101 to 999 nM; `CCOc1ccccc1COc1cc(N)nc2[nH]nnc12` [Example 128, 7-((2-Ethoxybenzyl)oxy)-3H-[1,2,3]triazolo[4,5-b]pyridin-5-amine]: 1 to 100 nM; `Nc1cc(OCc2cccc(F)c2F)c2nn[nH]c2n1` [Example 129, 7-((2,3-Difluorobenzyl)oxy)-3H-[1,2,3]triazolo[4,5-b]pyridin-5-amine]: 1 to 100 nM. `Nc1cc(OCc2ccc(F)cc2F)c2nn[nH]c2n1` [Example 130, 7-((2,4-Difluorobenzyl)oxy)-3H-[1,2,3]triazolo[4,5-b]pyridin-5-amine]: the IC50 lay in the range of 1 to 100 nM. On to `CS(=O)(=O)c1cc(Cl)ccc1COc1cc(N)nc2[nH]nnc12` [Example 131, 7-(4-Chloro-2-(methylsulfonyl)benzyloxy)-3H-[1,2,3]triazolo[4,5-b]pyridin-5-amine], for which the IC50 lay within 1 to 100 nM. With `Nc1cc(OCC2CCCCC2)c2nn[nH]c2n1` [Example 132, 7-(Cyclohexylmethoxy)-3H-[1,2,3]triazolo[4,5-b]pyridin-5-amine] the figure was 101 to 999 nM; with `CC(Oc1cc(N)nc2[nH]nnc12)c1ccccc1F` (stereo not drawn) [Example 140, 7-(1-(2-Fluorophenyl)ethoxy)-3H-[1,2,3]triazolo[4,5-b]pyridin-5-amine], 101 to 999 nM. With `CC(Oc1cc(N)nc2[nH]nnc12)c1ccc(OC(F)(F)F)cc1` (stereo not drawn) [Example 142, 7-(1-(4-(Trifluoromethoxy)phenyl)ethoxy)-3H-[1,2,3]triazolo[4,5-b]pyridin-5-amine], the IC50 fell in the range of 1000 to 10000 nM. On to `CC(Oc1cc(N)nc2[nH]nnc12)c1cccc(OC(F)(F)F)c1` (stereo not drawn) [Example 143, 7-(1-(3-(Trifluoromethoxy)phenyl)ethoxy)-3H-[1,2,3]triazolo[4,5-b]pyridin-5-amine], for which the IC50 lay within 101 to 999 nM.

For the compound `CC(=O)Nc1cccc(C(C)Oc2cc(N)nc3[nH]nnc23)c1` (stereo not drawn) [Example 144, N-(3-(1-(5-Amino-3H-[1,2,3]triazolo[4,5-b]pyridin-7-yloxy)ethyl)phenyl)acetamide], the IC50 fell in the range of 101 to 999 nM. With `CCC(Oc1cc(N)nc2[nH]nnc12)c1ccc(Cl)c(Cl)c1` (stereo not drawn) [Example 145, 7-(1-(3,4-Dichlorophenyl)propoxy)-3H-[1,2,3]triazolo[4,5-b]pyridin-5-amine], the IC50 fell in the range of 101 to 999 nM. In the case of `Nc1cc(OCc2ccc3ccccc3c2)c2nn[nH]c2n1` [Example 147, 7-(Naphthalen-2-ylmethoxy)-3H-[1,2,3]triazolo[4,5-b]pyridin-5-amine], the 50% inhibitory concentration (IC50) lay within 101 to 999 nM. As for `Nc1cc(OCc2cccc(Br)c2)c2nn[nH]c2n1` [Example 148, 7-(3-Bromobenzyloxy)-3H-[1,2,3]triazolo[4,5-b]pyridin-5-amine], the IC50 was 1 to 100 nM. Next, `Nc1cc(OCc2cc(C(=O)N3CCCC3)ccc2F)c2nn[nH]c2n1` [Example 152, (3-((5-amino-3H-[1,2,3]triazolo[4,5-b]pyridin-7-yloxy)methyl)-4-fluorophenyl)(pyrrolidin-1-yl)methanone]: 101 to 999 nM. `Nc1cc(OCc2cc(C(=O)N3CCC(O)CC3)ccc2F)c2nn[nH]c2n1` [Example 153, (3-((5-amino-3H-[1,2,3]triazolo[4,5-b]pyridin-7-yloxy)methyl)-4-fluorophenyl)(4-hydroxypiperidin-1-yl)methanone]: the 50% inhibitory concentration (IC50) was in the range of 101 to 999 nM. For `CN(CCO)C(=O)c1ccc(F)c(COc2cc(N)nc3[nH]nnc23)c1` [Example 154, 3-((5-amino-3H-[1,2,3]triazolo[4,5-b]pyridin-7-yloxy)methyl)-4-fluoro-N-(2-hydroxyethyl)-N-methylbenzamide], the IC50 fell in the range of 101 to 999 nM.

For `Nc1cc(OCc2cc(C(=O)Nc3nnc(C(F)(F)F)s3)ccc2F)c2nn[nH]c2n1` [Example 155, 3-((5-amino-3H-[1,2,3]triazolo[4,5-b]pyridin-7-yloxy)methyl)-4-fluoro-N-(5-(trifluoromethyl)-1,3,4-thiadiazol-2-yl)benzamide], the 50% inhibitory concentration (IC50) was in the range of 101 to 999 nM. With `Nc1cc(OCc2cc(C(=O)NCCCN3CCCC3=O)ccc2F)c2nn[nH]c2n1` [Example 156, 3-((5-amino-3H-[1,2,3]triazolo[4,5-b]pyridin-7-yloxy)methyl)-4-fluoro-N-(3-(2-oxopyrrolidin-1-yl)propyl) benzamide] the figure was 101 to 999 nM; with `CC(NC(=O)c1ccc(F)c(COc2cc(N)nc3[nH]nnc23)c1)c1ccccc1` (stereo not drawn) [Example 157, 3-((5-amino-3H-[1,2,3]triazolo[4,5-b]pyridin-7-yloxy)methyl)-4-fluoro-N-(1-phenylethyl)benzamide], 1 to 100 nM.
